Series [1] is described as follows: RP-UHPLC lipophilicity parameter log k’w. The series is classed as physicochemical. The conditions noted are these: for log k’w: RP-UHPLC, acetonitrile/water, log k extrapolated to 0% acetonitrile; for logkw: experimental lipophilicity parameter. An outline of the steps:
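log k’w from isocratic RP-UHPLC with an acetonitrile/water mobile phase, using 40, 45 and 50% acetonitrile for subtype I and 20, 30 and 40% for subtype II. A single run was made at each mobile-phase composition.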

The next series has as its system HepG2 cells. Description: HepG2 cytotoxicity screening (CellTiter 96). The series is classed as cell-based, human. The following applies: Homo sapiens, HepG2, 24 h, 24 h incubation, CellTiter 96; * above highest tested concentration; ** limited by insolubility in medium.
The subject of series [2] is Mycobacterium tuberculosis H37Ra ITM-M006710 (ATCC 9431). In words: Antimycobacterial MIC, microdilution broth / Alamar Blue (resazurin). The series is classed as cell-based. The following applies: Mycobacterium tuberculosis, 120 h, Middlebrook 7H9, resazurin after 120 h; read-out: Mtb H37Ra MIC. On the technique in general: Broth dilution looks for growth in wells or tubes with falling amounts of substance.

In series [3] the test system is M. smegmatis DSM 43465 (ATCC 607). In words: Antimycobacterial MIC, microdilution broth / resazurin. The series is classed as cell-based. The following applies: Mycolicibacterium smegmatis; resazurin after 48 h; read-out: MIC M. smegmatis.
For series [4], the system named is M. aurum DSM 43999 (ATCC 23366). Described as above. The series is classed as cell-based. The following applies: Mycolicibacterium aurum; resazurin after 72 h; read-out: MIC M. aurum. In general terms: The colour change of resazurin is a common sign of viable cells or microbes.
The test system of series [5] is M. avium DSM 44156 (ATCC 25291). The description is as above. The series is classed as cell-based, Mycobacterium avium. The following applies: Mycobacterium avium; resazurin after 96 h; read-out: MIC M. avium.
Series [6] relates to M. kansasii DSM 44162 (ATCC 12478). Described as above. The conditions noted are these: Mycobacterium kansasii; resazurin after 96 h; read-out: MIC M. kansasii. The series is classed as cell-based.
Series [7] can be described thus: Kinetic water solubility (water-induced precipitation of DMSO stock, UHPLC). The series is classed as physicochemical. The following applies: for solubility: water (DMSO stock diluted with water), 18 °C, kinetic from dmso stock. The text has this: A low value of log P is often presumed to be related to increased water solubility, although this might not always be the case since log P is a measure of relative solubility of the compound in the lipophilic and hydrophilic solvents (at equilibrium). Therefore, to be sure, we tested whether the lowered log k’w (related to log P) of the oxazole derivatives would also translate to increased solubility in water in a few representative derivatives. The water solubility of selected compounds was assessed by the kinetic method based on water-induced precipitation of DMSO stock solutions of tested compounds due to reasons described by Azzali and colleagues.
Water solubility was investigated using the kinetic solubility method. The sample (1 mg) was dissolved in the smallest amount of DMSO needed, 25 or 50 μL for subtype I and subtype II compounds, respectively. The samples were mixed at 18 °C in a thermomixer (Thermomixer comfort, Eppendorf, Hamburg, Germany) for 1 h. After mixing, the samples were diluted with water to a concentration of 500 μM, and the precipitate was observed. The sample was filtered through a 0.22 μm filter and diluted to be evaluated by UHPLC. The log S parameter was calculated from the experimental solubility in molar concentration. The samples were measured using the same instrument, software, and column as used in the purity evaluation.

Series [8] concerns Staphylococcus aureus subsp. aureus CCM 4223 (ATCC 29213). Description: Antibacterial microdilution broth (EUCAST). The conditions noted are these: Staphylococcus aureus; 24h incubation; read-out: MIC SA. It counts as cell-based.
Series [9] deals with Staphylococcus aureus subsp. aureus (MRSA) CCM 4750 (ATCC 43300). In words: Antibacterial microdilution broth (EUCAST). It counts as cell-based. The conditions noted are these: Staphylococcus aureus; 24h incubation; read-out: MIC MRSA.
Series [10] deals with Staphylococcus epidermidis CCM 4418 (ATCC 12228). Description: Antibacterial microdilution broth (EUCAST). The series is classed as cell-based. The following applies: Staphylococcus epidermidis; 24h incubation; read-out: MIC SE.
Series [11] has as its system Enterococcus faecalis CCM 4224 (ATCC 29212). In words: Antibacterial microdilution broth (EUCAST). It counts as cell-based. The conditions noted are these: Enterococcus faecalis; 24h incubation; read-out: MIC EF.
The subject of series [12] is Escherichia coli CCM 3954 (ATCC 25922). Description: Antibacterial microdilution broth (EUCAST). It counts as cell-based. The following applies: Escherichia coli; 24h incubation; read-out: MIC EC.
Series [13] relates to Acinetobacter baumannii DSM 30007 (ATCC 19606). In words: Antibacterial microdilution broth (EUCAST). The series is classed as cell-based. The following applies: Acinetobacter baumannii; 24h incubation; read-out: MIC AB.
Series [14] relates to Pseudomonas aeruginosa CCM 3955 (ATCC 27853). Description: Antibacterial microdilution broth (EUCAST). It counts as cell-based. The following applies: Pseudomonas aeruginosa; 72h incubation; read-out: MIC PA.
Series [15] relates to Candida albicans CCM 8320 (ATCC 24433). Description: Antifungal microdilution broth (EUCAST). The following applies: Candida albicans, 24 h, read-out: MIC CA.
Series [16] concerns Candida krusei CCM 8271 (ATCC 6258). In words: Antifungal microdilution broth (EUCAST). The following applies: Pichia kudriavzevii, 24 h, read-out: MIC CK.
Series [17] deals with Candida parapsilosis CCM 8260 (ATCC 22019). In words: Antifungal microdilution broth (EUCAST). The following applies: Lodderomyces parapsilosis, 24 h, read-out: MIC CP.
For series [18], the system named is Candida tropicalis CCM 8264 (ATCC 750). Description: Antifungal microdilution broth (EUCAST). The following applies: Candida tropicalis, 24 h, read-out: MIC CT.
The subject of series [19] is Aspergillus fumigatus ATCC 204305. Description: Antifungal microdilution broth (EUCAST). The following applies: Aspergillus fumigatus, ATCC204305, 24 h, read-out: MIC AF.
Series [20] concerns Aspergillus flavus CCM 8363. Description: Antifungal microdilution broth (EUCAST). The conditions noted are these: Aspergillus flavus, CCM8363, 24 h, read-out: MIC AFla.
Series [21] relates to Lichtheimia corymbifera CCM 8077. In words: Antifungal microdilution broth (EUCAST). The following applies: Lichtheimia corymbifera, CCM8077, 24 h, read-out: MIC LC.
The subject of series [22] is Trichophyton interdigitale CCM 8377 (ATCC 9533). Description: Antifungal microdilution broth (EUCAST). The conditions noted are these: Trichophyton interdigitale, 72 h, read-out: MIC TI.
[23] abbreviates: calculated from experimentally measured water solubility in molar concentration, read-out: Exp. log S (converted).
The mark [24] stands for this setting: water, kinetic method, DMSO stock diluted to 500 μM, read-out: Solubility.

What is called IC50 is the concentration that gives 50% inhibition. Read a low IC50 as higher potency. By MIC is commonly meant the least concentration at which growth counts as inhibited. In general, melting point refers to the temperature of the solid-liquid transition.

Converted amounts (≈) assume the structure as drawn. Like-named read-outs stand apart in the source and are kept apart here.

Take `O=C(Nc1nc(-c2ccccc2)cs1)c1cccnc1` [Compound 12a]: the “log k’w” value in series [1] is given as 2.131. For the same molecule, the logkw in series [1] came to 2.131. Besides, the IC50 with HepG2 cells was > 25 µM. In addition, the MIC is ≥ 500 µg/mL in [2]; ≥ 500 µg/mL in series [3]; ≥ 500 µg/mL in series [4]; ≥ 500 µg/mL in [5]; ≥ 500 µg/mL in [6]; > 125 µM in series [8]. The MIC in series [9], in series [10], in [11], in series [12], in [13] and in series [14] was > 125 µM each time. Further, the minimal inhibitory concentration (MIC) in [15], in [16], in series [17], in series [18], in series [19] and in series [20] was > 125 µM throughout. In addition, the minimal inhibitory concentration (MIC) in [21] and in [22] was > 125 µM each time. Moreover, in series [7] (experimental log S), the logS_exp was -3.188. Besides, the solubility in series [7] (setting [23]) was 1 µM; in series [7] (setting [24]), 0.28 µg/mL.

Consider `O=C(Nc1nccs1)c1cccnc1` [Compound 2a], for which the IC50 in the series with HepG2 cells is > 1000 µM. The MIC in series [2] was 250 µg/mL (≈ 1220 µM); in series [3] it was ≥ 500 µg/mL; in [4], 250 µg/mL (≈ 1220 µM); in series [8], > 500 µM; in series [9], > 500 µM; in series [10], > 500 µM. In addition, the MIC in series [11], in [12], in series [13], in series [14], in series [15] and in series [16] was > 500 µM each time. The MIC in series [17], in series [18], in series [19], in series [20], in series [21] and in series [22] was > 500 µM in each case. In [7], the logS_exp is -1.202.

Consider `O=C(Nc1nc(-c2ccccc2)co1)c1cccnc1` [Compound 12b], for which the “log k’w” value in series [1] is 1.118. Besides, the logkw in [1] stood at 1.118. The same molecule gave an IC50 in the series with HepG2 cells of 610 µM. The MIC in series [2] is 125 µg/mL (≈ 471 µM); in [3], 500 µg/mL (≈ 1880 µM); in [4] it was 250 µg/mL (≈ 942 µM); in series [8], 500 µM (≈ 133 µg/mL); in series [9], > 500 µM; in series [10] it was 62.5 µM (≈ 16.6 µg/mL). Also, the minimum inhibitory concentration (MIC) in series [11], in series [12], in series [13], in series [14], in [15] and in series [16] was > 500 µM each time. For the same molecule, the MIC in series [17], in series [18], in [19], in series [20], in series [21] and in series [22] was > 500 µM throughout. Moreover, the logS_exp in series [7] (experimental log S) is -2.228. The solubility is 437 µM in series [7] (setting [23]) and 116 µg/mL in series [7] (setting [24]).

As to `Cc1cncc(C(=O)Nc2nc(-c3ccccc3)co2)c1` [Compound 14b], the melting point was determined as 258.6 °C. Further, in series [1], the “log k’w” value is recorded as 1.478 and the logkw is reported as 1.478. Moreover, the concentration for half-maximal inhibition (IC50) in the series with HepG2 cells is > 100 µM. In series [2], the minimum inhibitory concentration (MIC) is ≥ 250 µg/mL. The MIC in [3] is ≥ 250 µg/mL. For the same molecule, the MIC in series [4] is ≥ 250 µg/mL. The minimal inhibitory concentration (MIC) in series [5] was ≥ 250 µg/mL. Also, the MIC in series [6] was ≥ 250 µg/mL. Further, the minimal inhibitory concentration (MIC) in [8] was found to be 250 µM (≈ 69.8 µg/mL). Further, in series [9], the MIC amounted to 250 µM (≈ 69.8 µg/mL). The MIC in series [10] is 250 µM (≈ 69.8 µg/mL). The minimal inhibitory concentration (MIC) in series [11] was > 250 µM. Moreover, the MIC in series [12] was > 250 µM. For the same molecule, the MIC in series [13] was > 250 µM. Further, in series [14], the minimum inhibitory concentration (MIC) was > 250 µM. Moreover, in [15], the MIC was > 500 µM. For the same molecule, the minimum inhibitory concentration (MIC) in series [16] was > 500 µM. In series [17], the minimal inhibitory concentration (MIC) was > 500 µM. The minimum inhibitory concentration (MIC) in [18] is > 500 µM. Also, the MIC in [19] is > 500 µM. Moreover, the minimum inhibitory concentration (MIC) in series [20] was > 500 µM. Further, in series [21], the MIC was > 500 µM. In addition, the minimal inhibitory concentration (MIC) in series [22] was > 500 µM.

In turn, `O=C(Nc1nccs1)c1cnc2ccccc2n1` [Compound 10a] had a melting point of 251.4 °C. In series [1], the “log k’w” value is reported as 2.530 and the logkw stood at 2.53. Moreover, the IC50 in the series on HepG2 cells is > 50 µM. For the same molecule, the MIC in [2] was ≥ 250 µg/mL. In [3], the minimal inhibitory concentration (MIC) is ≥ 250 µg/mL. Also, the minimal inhibitory concentration (MIC) in series [4] was ≥ 250 µg/mL. Also, the MIC in series [5] is ≥ 250 µg/mL. In series [6], the MIC stood at 7.81 µg/mL (≈ 30.5 µM). Moreover, in series [8], the minimum inhibitory concentration (MIC) was > 500 µM. Moreover, the MIC in series [9] was > 500 µM. Besides, the MIC in series [10] is > 500 µM. Further, the MIC in series [11] was > 500 µM. In addition, the minimum inhibitory concentration (MIC) in series [12] is > 500 µM. Besides, the MIC in series [13] is > 500 µM. The minimal inhibitory concentration (MIC) in series [14] was > 500 µM. In series [15], the MIC was > 500 µM. Moreover, in [16], the MIC is > 500 µM. Moreover, the minimum inhibitory concentration (MIC) in series [17] was > 500 µM. In series [18], the MIC was > 500 µM. The minimal inhibitory concentration (MIC) in series [19] was > 500 µM. The MIC in series [20] was > 500 µM. For the same molecule, the MIC in series [21] was > 500 µM. For the same molecule, in series [22], the minimal inhibitory concentration (MIC) is > 500 µM.

Values taken from paper PMC9143880, “Improving Antimicrobial Activity and Physico-Chemical Properties by Isosteric Replacement of 2-Aminothiazole with 2-Aminooxazole” (Pharmaceuticals, 2022).
